Measured values as given in patent US20140039044A1, “Hydroxylated Polymethoxyflavone Compositions” (WLLGEN, INC., priority 2006, published 2014).

Tests used:
HT-29 cells [1] = experiment: Cell cycle distribution by flow cytometry; type: cell-based, human; conditions: for Cell Cycle Distribution G0/G1 / Cell Cycle Distribution G2/M / Cell Cycle Distribution S: 24 h; for Cell cycle arrest, in words: 5-100 μM, 24 h exposure
Procedure: (§1) The human cancer cells (2×10^5) were cultured in 60-mm Petri dishes and incubated for 24 h. After treated with test compounds for 24 h, the cells were then harvested, washed with PBS resuspended in 200 μL of PBS, and fixed in 800 μL of iced 100% ethanol at −20° C. After being left to stand overnight, the cell pellets were collected by centrifugation, resuspended in 1 mL of hypotonic buffer (0.5% Triton X-100 in PBS and 0.5 μg/mL RNase) and incubated at 37° C. for 30 min. Next, 1 mL of propidium iodide solution (50 μg/mL) was added, and the mixture was allowed to stand on ice for 30 min. Fluorescence emitted from the propidium iodide-DNA complex was quantitated after excitation of the fluorescent dye by FACScan cytometry (Becton Dickinson, San Jose, Calif.).
(§2) Compounds A-K were evaluated in terms of their effects in arresting cell cycle progression by observing cell cycle phase distribution in cells treated with the compounds. Cells were treated with 5, 10, 25, 50, and 100 μM of one of compound A-K or DMSO (control) for 24 h and subjected to flow cytometric analysis after staining their DNA, as described above.
Similar cell cycle phase distribution studies were performed in AGS, COLO205, and HT-29 cells in response to individual PMFs, with results reported in Tables 11, 12 and 13, respectively.

HT-29 cells [2] = experiment: Apoptotic ratio by propidium iodide flow cytometry (AC50); type: cell-based, human; conditions: Homo sapiens, read-out: Apoptosis-inducing AC50
Procedure: as §1
(§3) The PMF compounds were assayed in vitro for cell growth inhibition and for their ability to induce apoptosis in various human cancer cells, including HL-60, AGS, COLO 205, and HT-29 cells, using methods described in Section 8.4 above. Antiproliferative (IC50) and apoptosis-inducing activity (AC50) of PMFs in the HL-60, AGS, COLO 205, and HT-29 cells are reported in Table 9, where *P<0.05, **P<0.01 and ***P<0.001 indicate statistically significant differences from the control group.

HL-60 cells [3] = experiment: Cell cycle distribution by flow cytometry; type: cell-based, human; conditions: for Cell Cycle Distribution G0/G1 / Cell Cycle Distribution G2/M / Cell Cycle Distribution S / Cell cycle arrest, in words: 24 h; for Cell Cycle Distribution G0/G1 / Cell Cycle Distribution G2/M / Cell Cycle Distribution S: Table 10
Procedure: as §1
The effects of the hydrolyzed PMF-enriched compositions, nobiletin and 70% PMF OPE on cell cycle distribution were studied, following the procedures described in Section 8.4. Results for cell cycle distribution in HL-60 cells, COLO205 cells and AGS cells are provided in Table 5, Table 6 and Table 7, respectively. […] In HL-60 cells, G2/M arrest predominated in cells treated with 6N PMF concentrations ≧5 μM and with 1N PMF concentrations ≧25 μM.
as §2

[4] = system: LPS-induced nitrite production in RAW 264.7 macrophages; experiment: Nitrite assay (Griess reaction); type: cell-based, mouse; conditions: 100 ng/ml LPS, PMF 30 μM, 24 h, FIG. 3
Procedure: Compounds or compositions were tested for anti-inflammatory effects by monitoring nitrite production in LPS-activated RAW264.7 cells. After treating the cells with LPS or LPS and test substance, supernatants were harvested and the amount of nitrite, an indicator of NO synthesis, was measured by use of the Griess reaction. Briefly, supernatants (100 μl) were mixed with the same volume of Griess reagent (1% sulphanilamide in 5% phosphoric acid and 0.1% naphthylethylenediamine dihydrochloride in water) in duplicate on 96-well plates. After incubation at room temperature for 10 min, absorbance at 570 nm was measured with a ELISA reader (Thermo Labsystems Multiskan Ascent, Finland).
The anti-inflammatory effects of compounds A-K were tested by measuring nitrite production in LPS-activated RAW 264.7 macrophages, as described in Section 8.4 above. Macrophages were treated with 100 ng/ml LPS alone or LPS and PMF (10 or 30 μM) for 24 h. At the end of incubation time, 100 μl of the culture medium was collected for the nitrite assay.

HL-60 cells [5] = experiment: Apoptotic ratio by propidium iodide flow cytometry (AC50); type: cell-based, human; conditions: Homo sapiens; HL-60 cells; read-out: Apoptosis-inducing AC50
Procedure: as §1
(§4) 1 N PMF and 6 N PMF compositions containing hydroxylated PMFs, prepared as described in Section 8.3 above, 70% PMF OPE and 5,6,7,8,3′,4′-hexamethoxyflavone (nobiletin) were tested for antiproliferative activity and apoptosis-inducing activity in HL-60, AGS and COLO205 cells as described in Section 8.4 above. Antiproliferative and apoptosis-inducing activities were derived as IC50 values and AC50, values, respectively, where AC50 is the concentration required for 50% apoptosis.
as §3

AGS cells = experiment: as above; type: cell-based, human; conditions: Homo sapiens; AGS cells; read-out: Apoptosis-inducing AC50
Procedure: as §1, §4, §3

COLO205 cells = experiment: as above; type: cell-based, human; conditions: Homo sapiens, COLO 205; COLO205 cells; read-out: Apoptosis-inducing AC50
Procedure: as §1, §4, §3

| Compound | Cell Cycle Distribution G0/G1 (HT-29 cells [1]; 5 μM) | Cell Cycle Distribution G2/M (HT-29 cells [1]; 5 μM) | Cell Cycle Distribution S (HT-29 cells [1]; 5 μM) | Cell Cycle Distribution G0/G1 (HT-29 cells [1]; 10 μM) | Cell Cycle Distribution G2/M (HT-29 cells [1]; 10 μM) | Cell Cycle Distribution S (HT-29 cells [1]; 10 μM) | Cell Cycle Distribution G0/G1 (HT-29 cells [1]; 25 μM) | Cell Cycle Distribution G2/M (HT-29 cells [1]; 25 μM) | Cell Cycle Distribution S (HT-29 cells [1]; 25 μM) | Cell Cycle Distribution G0/G1 (HT-29 cells [1]; 50 μM) | Cell Cycle Distribution G2/M (HT-29 cells [1]; 50 μM) | Cell Cycle Distribution S (HT-29 cells [1]; 50 μM) | Cell Cycle Distribution G0/G1 (HT-29 cells [1]; 100 μM) | Cell Cycle Distribution G2/M (HT-29 cells [1]; 100 μM) | Cell Cycle Distribution S (HT-29 cells [1]; 100 μM) | AC50 (HT-29 cells [2]) | Cell Cycle Distribution G0/G1 (HL-60 cells [3]; 5 μM) | Cell Cycle Distribution G2/M (HL-60 cells [3]; 5 μM) | Cell Cycle Distribution S (HL-60 cells [3]; 5 μM) | Cell Cycle Distribution G0/G1 (HL-60 cells [3]; 10 μM) | further results |
| --- | --- | --- | --- | --- | --- | --- | --- | --- | --- | --- | --- | --- | --- | --- | --- | --- | --- | --- | --- | --- | --- |
| COc1ccc(-c2oc3c(OC)c(OC)c(OC)c(O)c3c(=O)c2OC)cc1OC [Compound C, 5-hydroxy-3,6,7,8,3′,4′-hexamethoxyflavone] | 65.24 ± 0.32 | 7.62 ± 0.11 | 27.15 ± 0.21 | 69.14 ± 0.14 | 6.58 ± 0.18 | 24.28 ± 0.32 | 80.09 ± 0.19 | 4.39 ± 0.37 | 15.54 ± 0.19 | 69.85 ± 0.66 | 5.91 ± 0.49 | 24.25 ± 1.15 | 77.48 ± 0.74 | 3.94 ± 1.32 | 18.59 ± 0.58 | > 100 µM | 70.99 ± 0.49 | 0.95 ± 0.35 | 28.07 ± 0.99 | 78.47 ± 0.64 | Cell cycle arrest, in words (HT-29 cells [1]): significant accumulation of cells in G1 phase; Cell Cycle Distribution G2/M (HL-60 cells [3]; 10 μM): 19.89 ± 1.06; Cell Cycle Distribution S (HL-60 cells [3]; 10 μM): 1.64 ± 0.42; Cell cycle arrest, in words (HL-60 cells [3]; 25 μM): decrease in G1 arrest was accompanied by an increase in G2/M phase cell population; Cell Cycle Distribution G0/G1 (HL-60 cells [3]; 25 μM): 40.12 ± 0.64; Cell Cycle Distribution G2/M (HL-60 cells [3]; 25 μM): 20.37 ± 0.57; Cell Cycle Distribution S (HL-60 cells [3]; 25 μM): 39.51 ± 0.57; Cell Cycle Distribution G0/G1 (HL-60 cells [3]; 50 μM): 51.42 ± 1.13; Cell Cycle Distribution G2/M (HL-60 cells [3]; 50 μM): 11.64 ± 1.06; Cell Cycle Distribution S (HL-60 cells [3]; 50 μM): 36.94 ± 0.85; Cell Cycle Distribution G0/G1 (HL-60 cells [3]; 100 μM): 50.23 ± 1.91; Cell Cycle Distribution G2/M (HL-60 cells [3]; 100 μM): 18.74 ± 1.56; Cell Cycle Distribution S (HL-60 cells [3]; 100 μM): 31.03 ± 1.06; Cell cycle arrest, in words (HL-60 cells [3]; 25-100 μM): significant G1 arrest; Rank of inhibitory potency on LPS-induced nitrite production [4]: H>G>K>C>I>B; AC50 (HL-60 cells [5]): 63.65 ± 0.61 µM; AC50 (AGS cells): 18.9 ± 0.41 µM; AC50 (COLO205 cells): > 100 µM |
| COc1cc(-c2cc(=O)c3c(OC)c(OC)c(OC)c(OC)c3o2)ccc1O [Compound G, 4′-hydroxy-5,6,7,8,3′-pentamethoxyflavone] | 56.92 ± 1.98 | 12.42 ± 0.44 | 30.66 ± 2.43 | 58.01 ± 1.22 | 9.97 ± 2.10 | 32.03 ± 0.88 | 74.38 ± 1.68 | 6.18 ± 0.06 | 19.55 ± 1.59 | 84.63 ± 1.16 | 7.99 ± 0.01 | 7.39 ± 1.16 | 75.28 ± 1.61 | 14.63 ± 0.21 | 10.11 ± 1.82 | > 100 µM | 41.79 ± 0.80 | 4.80 ± 6.73 | 53.41 ± 5.93 | 43.26 ± 2.02 | Cell cycle arrest, in words (HT-29 cells [1]): significant accumulation of cells in G1 phase; Cell Cycle Distribution G2/M (HL-60 cells [3]; 10 μM): 12.61 ± 0.11; Cell Cycle Distribution S (HL-60 cells [3]; 10 μM): 44.15 ± 2.12; Cell Cycle Distribution G0/G1 (HL-60 cells [3]; 25 μM): 55.71 ± 0.15; Cell Cycle Distribution G2/M (HL-60 cells [3]; 25 μM): 8.39 ± 0.16; Cell Cycle Distribution S (HL-60 cells [3]; 25 μM): 35.90 ± 0.01; Cell Cycle Distribution G0/G1 (HL-60 cells [3]; 50 μM): 52.35 ± 1.09; Cell Cycle Distribution G2/M (HL-60 cells [3]; 50 μM): 12.18 ± 3.83; Cell Cycle Distribution S (HL-60 cells [3]; 50 μM): 35.48 ± 4.91; Cell Cycle Distribution G0/G1 (HL-60 cells [3]; 100 μM): 65.44 ± 5.42; Cell Cycle Distribution G2/M (HL-60 cells [3]; 100 μM): 11.21 ± 8.27; Cell Cycle Distribution S (HL-60 cells [3]; 100 μM): 23.35 ± 13.67; Rank of inhibitory potency on LPS-induced nitrite production [4]: H>G>K>C>I>B; AC50 (HL-60 cells [5]): 87.1 ± 7.83 µM; AC50 (AGS cells): > 100 µM; AC50 (COLO205 cells): > 100 µM |
| COc1ccc(-c2cc(=O)c3c(O)c(OC)c(OC)c(OC)c3o2)cc1O [Compound K, 5,3′-dihydroxy-6,7,8,4′-tetramethoxyflavone] | 60.57 ± 0.04 | 9.87 ± 0.78 | 29.71 ± 0.94 | 57.94 ± 0.50 | 11.52 ± 0.27 | 30.55 ± 0.77 | 50.58 ± 1.35 | 12.49 ± 0.09 | 36.94 ± 1.45 | 64.13 ± 0.83 | 13.14 ± 0.47 | 22.73 ± 0.37 | 47.16 ± 2.59 | 36.12 ± 4.37 | 16.72 ± 1.73 | > 100 µM | 0.56 ± 0.76 | 35.91 ± 0.11 | 60.54 ± 4.90 | 0.38 ± 0.06 | G2/M cell cycle arrest, in words (HT-29 cells [1]): strongly potentiated the G2/M cell cycle arrest; G2/M cell cycle arrest, in words (HL-60 cells [3]): strongly potentiated the G2/M cell cycle arrest; Cell Cycle Distribution G2/M (HL-60 cells [3]; 10 μM): 54.41 ± 4.77; Cell Cycle Distribution S (HL-60 cells [3]; 10 μM): 45.22 ± 4.83; Cell Cycle Distribution G0/G1 (HL-60 cells [3]; 25 μM): 0.68 ± 0.42; Cell Cycle Distribution G2/M (HL-60 cells [3]; 25 μM): 49.12 ± 2.64; Cell Cycle Distribution S (HL-60 cells [3]; 25 μM): 50.23 ± 3.08; Cell Cycle Distribution G0/G1 (HL-60 cells [3]; 50 μM): 2.63 ± 2.50; Cell Cycle Distribution G2/M (HL-60 cells [3]; 50 μM): 45.05 ± 0.01; Cell Cycle Distribution S (HL-60 cells [3]; 50 μM): 52.33 ± 2.51; Cell Cycle Distribution G0/G1 (HL-60 cells [3]; 100 μM): 3.18 ± 2.62; Cell Cycle Distribution G2/M (HL-60 cells [3]; 100 μM): 30.61 ± 4.64; Cell Cycle Distribution S (HL-60 cells [3]; 100 μM): 66.21 ± 1.72; Rank of inhibitory potency on LPS-induced nitrite production [4]: H>G>K>C>I>B; AC50 (HL-60 cells [5]): > 100 µM; AC50 (AGS cells): 70 ± 1.4 µM; AC50 (COLO205 cells): > 100 µM |
